Reference: PubChem BioAssay (NCI)
Values after ≈ are worked out from the molar mass of the structure shown. Values joined by “and” are separate entries in the source; they are usually repeats but may differ in a detail not shown here. Equal entries are not always repeated.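 Following 48 hours of exposure in 96-well plates, responses at five concentrations were used to interpolate endpoints linearly. Here, GI50 denotes the concentration required for 50% inhibition of growth. TGI marks complete inhibition of growth.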

What was measured:
Experiment in all cases: DTP human tumour cell line panel, 48 h
[1] = test system: CCRF-CEM leukemia
[2] = test system: HCC-2998 colon
[3] = test system: HOP-62 NSCLC
[4] = test system: MALME-3M melanoma
[5] = test system: MCF7 breast
[6] = test system: NCI-H23 lung
[7] = test system: OVCAR-5 ovarian
[8] = test system: TK-10 renal
[9] = test system: UACC-257 melanoma
[10] = test system: UO-31 renal

CCN(CC)/[N+]([O-])=N/OS(=O)(=O)N(C)C
TGI [1]: > 100 µM | TGI [2]: > 100 µM | TGI [3]: > 100 µM | TGI [4]: > 100 µM | TGI [5]: > 100 µM | TGI [6]: > 100 µM | TGI [7]: > 100 µM | TGI [8]: > 100 µM | TGI [9]: > 100 µM

COc1ccc(OC/C(N)=N/NC(=O)c2ccncc2)cc1
TGI [1]: > 100 µM | TGI [2]: > 100 µM | TGI [3]: > 100 µM | TGI [4]: > 100 µM | TGI [5]: > 100 µM | TGI [6]: > 100 µM | TGI [7]: > 100 µM | TGI [8]: > 100 µM | TGI [9]: > 100 µM

O=S1(=O)C(=C(c2ccccc2)c2ccccc2)S(=O)(=O)c2ccccc21
TGI [1]: > 100 µM | TGI [2]: > 100 µM | TGI [3]: 46.8 µM | TGI [4]: > 100 µM | TGI [5]: > 100 µM | TGI [6]: > 100 µM | TGI [7]: > 100 µM | TGI [9]: > 100 µM | TGI [10]: > 100 µM

NC(Cc1cc(I)c(Oc2ccc(O)c(I)c2)c(I)c1)C(=O)O (stereo not given)
TGI [3]: > 100 µM | TGI [4]: > 100 µM | TGI [5]: > 100 µM | TGI [6]: > 100 µM | TGI [7]: > 100 µM | TGI [8]: > 100 µM | TGI [9]: > 100 µM | TGI [10]: > 100 µM

NCCc1ccc(S(=O)(=O)O)cc1[N+](=O)[O-]
TGI [1]: > 100 µM | TGI [3]: > 100 µM | TGI [4]: > 100 µM | TGI [5]: > 100 µM | TGI [6]: > 100 µM | TGI [7]: > 100 µM | TGI [8]: > 100 µM | TGI [9]: > 100 µM | TGI [10]: > 100 µM

COc1ccc(/C=C2\C[C@H]3[C@@H]4CC=C5C[C@@H](O)CC[C@]5(C)[C@H]4CC[C@]3(C)\C2=N\O)cc1
TGI [1]: > 100 µM | TGI [3]: > 100 µM | TGI [4]: 76.6 µM | TGI [5]: > 100 µM | TGI [6]: > 100 µM | TGI [8]: > 100 µM | TGI [9]: 45.7 µM | TGI [10]: 71.6 µM

CCN(CC)c1ccc(Cl)c2c1C(O)(C(C)C)C2(C)C (stereo not given)
TGI [1]: 39.9 µM | TGI [2]: 30.3 µM | TGI [3]: 39 µM | TGI [4]: 27.4 µM | TGI [6]: 29 µM | TGI [7]: 30.6 µM | TGI [8]: 30.2 µM | TGI [9]: 27.6 µM | TGI [10]: 32 µM

C(=C\c1cc[n+](CCc2ccccc2)cc1)/c1ccccc1
TGI [1]: 42.5 µM | TGI [3]: 40.4 µM | TGI [4]: 28.6 µM | TGI [5]: > 100 µM | TGI [6]: 43.7 µM | TGI [7]: 88.5 µM | TGI [8]: > 100 µM | TGI [9]: 17.5 µM | TGI [10]: > 100 µM

Cc1nn(C(=O)Cc2ccccc2)c2c1C(c1ccc(/C=C/c3ccccc3)cc1)SC(N)=N2 (stereo not given)
TGI [1]: > 100 µM | TGI [2]: > 100 µM | TGI [3]: > 100 µM | TGI [4]: > 100 µM | TGI [5]: > 100 µM | TGI [6]: > 100 µM | TGI [8]: > 100 µM | TGI [9]: > 100 µM | TGI [10]: > 100 µM

CC(=O)Nc1ccc2c(c1)C(=O)c1ccccc1-2
TGI [1]: > 100 µM | TGI [2]: > 100 µM | TGI [3]: > 100 µM | TGI [4]: > 100 µM | TGI [6]: > 100 µM | TGI [8]: > 100 µM | TGI [9]: > 100 µM | TGI [10]: > 100 µM

Cc1csc(=Nc2ccccc2)n1CCC(O)(P(=O)(O)O)P(=O)(O)O
TGI [2]: > 100 µM | TGI [3]: > 100 µM | TGI [4]: > 100 µM | TGI [5]: > 100 µM | TGI [6]: > 100 µM | TGI [7]: > 100 µM | TGI [8]: > 100 µM | TGI [9]: > 100 µM | TGI [10]: > 100 µM

CC(C)(C)OC(=O)CC(NC(=O)OCc1ccccc1)NC(=O)OC(C)(C)C (stereo not given)
GI50 [1]: 35.4 µg/mL (≈ 89.6 µM) | GI50 [2]: 94.4 µg/mL (≈ 239 µM) | GI50 [4]: 46 µg/mL (≈ 117 µM) | GI50 [5]: 44.1 µg/mL (≈ 112 µM) | GI50 [6]: 39.1 µg/mL (≈ 99.2 µM) | GI50 [9]: 35.8 µg/mL | GI50 [10]: 27 µg/mL (≈ 68.5 µM)

COC(=O)C1(CCCCl)CCCN1C(=O)OC(C)(C)C (stereo not given)
TGI [1]: > 100 µM | TGI [2]: > 100 µM | TGI [3]: > 100 µM | TGI [5]: > 100 µM | TGI [6]: > 100 µM | TGI [7]: > 100 µM | TGI [8]: > 100 µM | TGI [9]: > 100 µM | TGI [10]: > 100 µM

O=C(c1c(F)c(F)c(F)c(F)c1F)n1c(=S)n(C(=O)c2c(F)c(F)c(F)c(F)c2F)c2ccccc21
TGI [1]: 49.9 µM | TGI [2]: > 100 µM | TGI [3]: > 100 µM | TGI [5]: > 100 µM | TGI [7]: > 100 µM | TGI [8]: > 100 µM | TGI [9]: > 100 µM | TGI [10]: > 100 µM

N/C(=N\N=C\c1nc2ccccc2o1)c1cnccn1
TGI [1]: > 100 µM | TGI [3]: > 100 µM | TGI [4]: 4.38 µM | TGI [5]: > 100 µM | TGI [6]: > 100 µM | TGI [7]: > 100 µM | TGI [8]: > 100 µM | TGI [9]: > 100 µM | TGI [10]: > 100 µM

CCc1nc(N)nc(N)c1-c1ccc(N2CCOCC2)c(N=[N+]=[N-])c1
TGI [1]: > 100 µM | TGI [2]: > 100 µM | TGI [3]: > 100 µM | TGI [5]: > 100 µM | TGI [6]: > 83.7 µM | TGI [7]: > 100 µM | TGI [8]: > 100 µM | TGI [9]: > 100 µM | TGI [10]: > 100 µM

Cc1cnc2[nH]c(-c3cccc4ccccc34)cc(=O)c2c1
TGI [1]: > 100 µM | TGI [2]: 0.029 µM and 0.0576 µM | GI50 [3]: 0.127 µM | TGI [3]: > 100 µM | TGI [4]: 0.000989 µM | TGI [5]: 41.6 µM | TGI [6]: > 100 µM | TGI [7]: > 100 µM | GI50 [9]: 15 µM | TGI [9]: > 100 µM | TGI [10]: 34 µM

CCCCCCC1OC23OC1CCC2C(O)CCC3O (stereo not given)
TGI [2]: > 100 µM | TGI [3]: > 100 µM | TGI [4]: > 100 µM | TGI [5]: > 100 µM | TGI [6]: > 100 µM | TGI [7]: > 100 µM | TGI [8]: > 100 µM | TGI [9]: > 100 µM | TGI [10]: > 100 µM

O=C(Nc1ccc(Cl)cc1Cl)C1C(=O)OC2(CCCCC2)OC1=O
TGI [1]: 33.2 µM | TGI [2]: 29.3 µM | TGI [3]: 17.3 µM | TGI [5]: 29.6 µM | TGI [6]: 19.1 µM | TGI [7]: 28 µM | TGI [8]: > 100 µM | TGI [9]: 30.1 µM | TGI [10]: 15.1 µM

CCOC(=O)c1cn(-c2ccc([N+](=O)[O-])cc2)c(=S)n2c1nc1ccccc12
TGI [1]: > 100 µM | TGI [2]: > 100 µM | TGI [3]: > 100 µM | TGI [5]: > 100 µM | TGI [6]: > 100 µM | TGI [7]: > 100 µM | TGI [9]: > 100 µM | TGI [10]: 4.64 µM

COc1cc(Nc2nc3cc(C)ccc3nc2-c2ccccc2)cc(OC)c1OC
TGI [1]: > 100 µM | TGI [2]: 44.2 µM | TGI [4]: 56.8 µM | TGI [6]: 57 µM | TGI [7]: > 100 µM | TGI [8]: > 100 µM | TGI [9]: > 100 µM | TGI [10]: 77.7 µM

Cc1ccc2c(c1C)CC1(Cc3ccc(C)c(C)c3C1=O)C2=O (stereo not given)
TGI [1]: > 100 µM | TGI [2]: > 100 µM | TGI [4]: > 100 µM | TGI [5]: > 100 µM | TGI [7]: > 100 µM | TGI [8]: > 100 µM | TGI [9]: > 100 µM | TGI [10]: > 100 µM

COc1ccc(OC)c(/C=C2/C(=O)N=C(NC(C)=O)N2C)c1
TGI [1]: > 100 µM | TGI [2]: > 100 µM | TGI [3]: > 100 µM | TGI [5]: > 100 µM | TGI [6]: > 100 µM | TGI [7]: > 100 µM | TGI [8]: > 100 µM | TGI [9]: > 100 µM | TGI [10]: > 100 µM
